Results: patent US20070141158A1, “Amphiphilic heparin derivative formed by coupling a heparin with a bile acid” (ETHYPHARM, priority 2003, published 2007)

Experiment: Incorporation (solubilization) of hydrophobic active ingredients into aqueous solution of heparin hydrophobized with cholic acid (HEP19CHO), dissolution method
Format: physicochemical
Conditions: for increase of quantity in solution: HEP19CHO (Cp=8.6 mg/ml) after 6 days of incorporation, versus water (FIG. 4)
Description: An example of a method of incorporation by direct dissolution is described below. 30 mg of hydrophobized heparin are introduced into a tube and 3 ml of distilled water are added thereto. After dissolution, a large excess of active ingredient (15 to 30 mg) is introduced into the mixture.
A phase of stirring the mixture obtained is carried out by means of a magnetic stirrer bar for several days. The mixture is then centrifuged and the supernatant is passed through a 0.45 μm filter. The quantity of active ingredient solubilized in the solutions of hydrophobized heparin may be determined by UV/visible spectroscopy or by HPLC.
The nonsolubilized active ingredient is removed after filtration of the solutions on a membrane having a porosity of 0.45 μm. The quantity of active ingredient in solution is then determined. Having determined the quantities solubilized in water and those dissolved in the hydrophobic domains, it is then possible to calculate a partition coefficient hydrophobic domains/water which is called Log P′ by analogy with Log P.
Indeed, the relative solubility of molecules between an oily phase and an aqueous phase is described by the partition coefficient P which represents the distribution of the molecules between two solvents, generally water and octanol. The use of its logarithm, log P, is often preferred. […] Likewise for Log P′ which expresses the ratio of the solubilities of the active agent in water and in the solution of hydrophobized heparin.
The incorporation of active ingredients was essentially carried out by the dissolution method. In this method, the compound to be incorporated is placed in solid form in a tube containing water or a colloidal solution of hydrophobized heparin, at the concentration Cp (mg/ml).
The mixing is performed with stirring at room temperature for various times. The compound to be incorporated remains at saturating concentration in the medium. At the end of the incorporation period, the tubes are subjected to a centrifugation step and the supernatants are filtered on 0.45 μm filters and assayed. Control solutions (water or nonhydrophobized heparin) are treated in the same manner.
The quantity of active ingredient incorporated into the various media is quantified by HPLC and/or by measuring the UV absorbance.
Thus, the incorporation is expressed in milligram of active ingredient per gram of polymer (mg/g P) or in micromole of active ingredient per gram of polymer (μmol/g P). This incorporation level is calculated by taking the ratio between the concentration of the active ingredient in solution and the concentration of the polymer. […] The difference in concentration of active ingredients in water and in a solution of hydrophobized heparin represents the quantity of active ingredient effectively present in hydrophobic micro-domains formed by the grouping together of cholic acid residues.

| SMILES | level of incorporation into the hydrophobic domains (HEP19CHO 8 mg/ml, after 3 days) [mg/g P] | increase of quantity in solution | gain in solubility relative to water (HEP19CHO calcium salt, 8 mg/ml, after 3 days (FIG. 3)) | concentration of carbamazepine present in the hydrophobic domains (HEP19CHO solution 8 mg/ml, after 3 days, HEP19CHO solution minus aqueous phase) [µg/mL] | affinity for the hydrophobic domains (among the molecules tested) (HEP19CHO, Table 5 molecules) | times as soluble in a solution of hydrophobized heparin as in water (HEP19CHO solution versus water) |
| --- | --- | --- | --- | --- | --- | --- |
| NC(=O)N1c2ccccc2C=Cc2ccccc21 [Carbamazepine] | 70 | increased ten fold | exceeds 500% | 560 | highest affinity for the hydrophobic domains |  |
| CCC(C)n1ncn(-c2ccc(N3CCN(c4ccc(OCC5COC(Cn6cncn6)(c6ccc(Cl)cc6Cl)O5)cc4)CC3)cc2)c1=O (stereo not shown) [Itraconazole] |  | > 2000 fold |  |  |  | more than 2000 times |
